From ChEMBL document CHEMBL5053508, “Optimization of Beclin 1-Targeting Stapled Peptides by Staple Scanning Leads to Enhanced Antiproliferative Potency in Cancer Cells” (J Med Chem, 2021)
Blank lines part the entries; values can stand above or below the molecule they belong to. The source made the active and inactive calls. The rule behind the calls is not given here.

Key:
[1] = system: SK-BR-3; experiment: Antiproliferative activity against human SK-BR-3 cells assessed as reduction of cell growth measured after 24 hrs by trypan blue exclusion assay; settings: SK-BR-3, 24 h
[2] = system: SK-BR-3; experiment: Antiproliferative activity against human SK-BR-3 cells assessed as reduction in cell growth incubated for 5 days by trypan blue exclusion assay; type: functional, cell-based; settings: time 5.0 day
[3] = system: HEK-293T; experiment: Cytotoxicity against HEK293T cells assessed as reduction in cell viability at 10 to 20 uM measured after 24 hrs by trypan blue exclusion assay; type: cell-based; settings: human, dose 10-20 µM
[4] = system: SK-BR-3; experiment: Induction of apoptosis in human SK-BR-3 cells assessed as increase in cleaved PARP expression at 0.15 uM incubated for 48 hrs by western blot analysis; type: functional, cell-based
[5] = system: SK-BR-3; experiment: Induction of apoptosis in human SK-BR-3 cells assessed as increase in cleaved caspase-3 expression at 0.15 uM incubated for 48 hrs by western blot analysis; type: functional, cell-based
[6] = target: T1, Beclin-1 (Homo sapiens, UniProt Q14457); experiment: Binding affinity to Beclin 1 coiled coil domain (unknown origin) by isothermal titration calorimetry assay
T1 sequence (Q14457 whole entry, the tested form may be a part): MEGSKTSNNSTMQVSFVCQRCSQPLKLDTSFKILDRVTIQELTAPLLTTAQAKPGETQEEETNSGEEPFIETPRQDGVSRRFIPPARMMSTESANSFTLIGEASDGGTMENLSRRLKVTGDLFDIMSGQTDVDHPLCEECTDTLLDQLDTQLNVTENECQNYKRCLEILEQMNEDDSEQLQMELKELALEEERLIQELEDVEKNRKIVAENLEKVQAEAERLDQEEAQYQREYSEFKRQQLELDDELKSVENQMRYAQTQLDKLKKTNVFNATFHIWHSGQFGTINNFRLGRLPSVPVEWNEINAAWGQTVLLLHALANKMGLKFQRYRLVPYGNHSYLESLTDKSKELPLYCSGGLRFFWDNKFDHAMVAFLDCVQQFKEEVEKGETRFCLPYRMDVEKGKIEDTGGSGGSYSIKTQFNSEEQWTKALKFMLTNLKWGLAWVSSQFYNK

[7] = system: SK-BR-3; experiment: Induction of apoptosis in human SK-BR-3 cells assessed as early apoptotic cells at 1 uM measured after 24 hrs by annexin V-FITC/PI staining based flow cytometry analysis (Rvb= 2.2%); type: functional
[8] = system: SK-BR-3; experiment: Induction of apoptosis in human SK-BR-3 cells assessed as late apoptotic cells at 1 uM incubated for 24 hrs by flow cytometry with Annexin V-FITC/propidium iodide staining based flow cytometry assay (Rvb= 2.2%); type: functional
[9] = system: SK-BR-3; experiment: Induction of apoptosis in human SK-BR-3 cells assessed as dead cells at 1 uM measured after 24 hrs by annexin V-FITC/PI staining based flow cytometry analysis (Rvb= 5.0%); type: functional
[10] = system: SK-BR-3; experiment: Induction of apoptosis in human SK-BR-3 cells assessed as increase in cell death at 5 uM in presence of Z-VAD-FMK measured after 24 hrs by trypan blue exclusion assay; type: functional, cell-based
[11] = system: SK-BR-3; experiment: Induction of apoptosis in human SK-BR-3 cells assessed as live cells at 1 uM measured after 24 hrs by annexin V-FITC/PI staining based flow cytometry analysis (Rvb= 90.6%); type: functional
[12] = system: HEK-293T; experiment: Induction of autophagy in HEK293T cells assessed as increase in LC3-II protein level at 10 to 20 uM incubated for 3 hrs by western blot analysis; type: functional, cell-based; settings: Homo sapiens, dose 10-20 µM
[13] = target: Receptor tyrosine-protein kinase erbB-2 (Homo sapiens) (UniProt P04626); experiment: Induction of endolysosomal trafficking of HER2 in human SK-BR-3 cells assessed as EGF-induced degradation of HER2 at 2 uM measured after 24 hrs post-EGF stimulation by western blot analysis relative to control; type: cell-based
Sequence of Receptor tyrosine-protein kinase erbB-2 (Homo sapiens) (P04626 whole entry): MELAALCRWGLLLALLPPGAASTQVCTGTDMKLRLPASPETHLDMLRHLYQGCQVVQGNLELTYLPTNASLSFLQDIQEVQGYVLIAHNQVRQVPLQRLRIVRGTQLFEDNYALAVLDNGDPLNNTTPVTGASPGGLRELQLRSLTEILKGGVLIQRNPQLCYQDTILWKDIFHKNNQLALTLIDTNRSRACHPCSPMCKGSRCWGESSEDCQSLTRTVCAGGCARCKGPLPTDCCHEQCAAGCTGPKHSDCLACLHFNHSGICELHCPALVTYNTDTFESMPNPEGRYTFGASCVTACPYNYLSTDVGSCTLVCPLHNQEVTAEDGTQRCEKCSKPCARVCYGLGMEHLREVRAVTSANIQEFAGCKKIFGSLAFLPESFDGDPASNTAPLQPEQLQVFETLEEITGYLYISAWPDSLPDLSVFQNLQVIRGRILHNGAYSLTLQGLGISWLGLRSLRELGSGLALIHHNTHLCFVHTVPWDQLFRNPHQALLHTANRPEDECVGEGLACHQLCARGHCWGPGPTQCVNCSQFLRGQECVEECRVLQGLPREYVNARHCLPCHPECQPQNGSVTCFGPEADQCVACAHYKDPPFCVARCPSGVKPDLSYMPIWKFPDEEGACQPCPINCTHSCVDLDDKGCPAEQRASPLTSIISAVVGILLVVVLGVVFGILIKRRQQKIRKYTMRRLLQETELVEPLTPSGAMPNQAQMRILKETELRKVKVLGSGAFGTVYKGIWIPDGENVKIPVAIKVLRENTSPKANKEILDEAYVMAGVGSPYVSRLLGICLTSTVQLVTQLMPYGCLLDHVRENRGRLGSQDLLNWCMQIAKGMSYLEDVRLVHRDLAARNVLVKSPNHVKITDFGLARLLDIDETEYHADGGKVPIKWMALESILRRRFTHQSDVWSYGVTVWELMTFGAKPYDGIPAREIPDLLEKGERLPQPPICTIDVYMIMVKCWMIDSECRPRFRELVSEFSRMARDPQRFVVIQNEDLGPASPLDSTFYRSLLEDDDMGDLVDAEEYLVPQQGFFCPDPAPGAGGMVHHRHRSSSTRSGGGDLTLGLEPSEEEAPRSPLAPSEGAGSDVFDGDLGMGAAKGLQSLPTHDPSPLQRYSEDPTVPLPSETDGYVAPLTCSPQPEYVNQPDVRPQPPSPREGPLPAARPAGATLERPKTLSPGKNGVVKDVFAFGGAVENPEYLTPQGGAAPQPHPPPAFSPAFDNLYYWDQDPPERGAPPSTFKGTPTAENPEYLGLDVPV

[14] = system: SK-BR-3; experiment: Induction of apoptosis […] in human SK-BR-3 cells assessed as late apoptotic cells at 5 uM incubated for 24 hrs by flow cytometry with Annexin V-FITC/propidium iodide staining based flow cytometry analysis (Rvb= 2.2%); type: functional
[15] = system: SK-BR-3; experiment: Induction of apoptosis in human SK-BR-3 cells assessed as late apoptotic cells at 10 uM incubated for 24 hrs by flow cytometry with Annexin V-FITC/propidium iodide staining based flow cytometry assay (Rvb= 2.2%); type: functional
[16] = system: HEK293T; experiment: Induction of Beclin 1- FLAG tagged UVRAG interaction in HEK293T cells assessed as endogenous beclin 1 pull down at 10 uM by coimmunoprecipitation assay; type: cell-based; settings: Homo sapiens
[17] = system: HEK293T; experiment: Induction of FLAG tagged Beclin 1- Atg14L interaction in HEK293T cells assessed as increase in endogenous beclin 1 pull down at 30 uM by coimmunoprecipitation assay; type: cell-based; settings: Homo sapiens
[18] = system: HEK-293T; experiment: Induction of autophagy in human HEK293T cells assessed as increase in p62 protein level at 10 to 20 uM measured after 3 hrs by western blot analysis; type: functional, cell-based; settings: dose 10-20 µM
[19] = system: SK-BR-3; experiment: Induction of apoptosis in human SK-BR-3 cells assessed as early apoptotic cells at 10 uM measured after 24 hrs by annexin V-FITC/PI staining based flow cytometry analysis (Rvb= 2.2%); type: functional
[20] = system: SK-BR-3; experiment: Induction of apoptosis in human SK-BR-3 cells assessed as dead cells at 10 uM measured after 24 hrs by annexin V-FITC/PI staining based flow cytometry analysis (Rvb= 5.0%); type: functional
[21] = system: SK-BR-3; experiment: Induction of apoptosis in human SK-BR-3 cells assessed as live cells at 10 uM measured after 24 hrs by annexin V-FITC/PI staining based flow cytometry analysis (Rvb= 90.6%); type: functional
[22] = target: T1, Beclin-1; experiment: Inhibition of FLAG-tagged Beclin 1 self-association in HEK293T cells cotransfected with GFP assessed as reduction in beclin 1- GFP pull down by FLAG-beclin 1 by coimmunoprecipitation assay; type: cell-based
[23] = target: Epidermal growth factor receptor (Homo sapiens) (UniProt P00533); experiment: Induction of endolysosomal trafficking of EGFR in human SK-BR-3 cells assessed as EGF-induced degradation of EGFR at 2 uM measured after 15 hrs post-EGF stimulation by western blot analysis relative to control; type: cell-based
Sequence of Epidermal growth factor receptor (Homo sapiens) (P00533 whole entry): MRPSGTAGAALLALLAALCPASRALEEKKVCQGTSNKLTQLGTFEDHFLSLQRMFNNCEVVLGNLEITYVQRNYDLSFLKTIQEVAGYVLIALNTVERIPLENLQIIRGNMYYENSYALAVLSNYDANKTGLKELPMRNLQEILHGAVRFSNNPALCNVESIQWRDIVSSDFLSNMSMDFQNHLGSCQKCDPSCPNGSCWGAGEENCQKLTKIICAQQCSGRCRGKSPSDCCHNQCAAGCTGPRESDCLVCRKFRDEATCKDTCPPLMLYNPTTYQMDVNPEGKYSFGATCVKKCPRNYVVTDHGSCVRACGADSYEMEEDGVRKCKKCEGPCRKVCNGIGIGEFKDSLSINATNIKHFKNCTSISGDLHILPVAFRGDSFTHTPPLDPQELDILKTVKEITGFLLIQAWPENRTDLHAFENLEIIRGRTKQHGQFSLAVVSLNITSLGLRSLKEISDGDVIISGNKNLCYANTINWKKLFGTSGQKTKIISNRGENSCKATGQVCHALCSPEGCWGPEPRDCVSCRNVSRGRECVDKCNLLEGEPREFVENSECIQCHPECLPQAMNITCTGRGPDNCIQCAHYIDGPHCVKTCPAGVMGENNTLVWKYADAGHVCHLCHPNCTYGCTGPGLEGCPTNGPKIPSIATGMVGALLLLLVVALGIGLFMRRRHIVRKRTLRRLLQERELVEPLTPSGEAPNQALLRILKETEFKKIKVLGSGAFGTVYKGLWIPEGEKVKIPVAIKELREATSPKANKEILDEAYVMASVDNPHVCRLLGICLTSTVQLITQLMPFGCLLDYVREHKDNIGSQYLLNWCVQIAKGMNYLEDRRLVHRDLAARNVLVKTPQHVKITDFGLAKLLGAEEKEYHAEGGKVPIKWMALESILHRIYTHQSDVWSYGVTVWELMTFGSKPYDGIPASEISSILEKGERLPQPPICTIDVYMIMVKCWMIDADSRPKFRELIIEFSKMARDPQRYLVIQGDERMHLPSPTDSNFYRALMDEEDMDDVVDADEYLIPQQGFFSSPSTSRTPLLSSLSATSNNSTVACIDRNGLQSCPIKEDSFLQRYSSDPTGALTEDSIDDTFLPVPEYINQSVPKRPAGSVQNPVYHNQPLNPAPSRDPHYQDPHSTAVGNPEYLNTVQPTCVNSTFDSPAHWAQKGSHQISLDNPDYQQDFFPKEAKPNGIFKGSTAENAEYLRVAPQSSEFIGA

[24] = system: SK-BR-3; experiment: Induction of apoptosis in human SK-BR-3 cells assessed as increase in cell death at 10 uM in presence of Z-VAD-FMK measured after 24 hrs by trypan blue exclusion assay; type: functional, cell-based
[25] = system: HEK-293T; experiment: Induction of autophagy in human HEK293T cells assessed as increase in p62 protein level at 10 to 20 uM in presence of chloroquine measured after 3 hrs by western blot analysis; type: functional, cell-based; settings: dose 10-20 µM
[26] = system: SK-BR-3; experiment: Induction of apoptosis in human SK-BR-3 cells assessed as dead cells at 5 uM measured after 24 hrs by annexin V-FITC/PI staining based flow cytometry analysis (Rvb= 5.0%); type: functional
[27] = system: HEK293T; experiment: Induction of FLAG tagged Beclin 1- Atg14L interaction in HEK293T cells assessed as increase in endogenous beclin 1 pull down at 10 to 20 uM by coimmunoprecipitation assay; type: cell-based; settings: Homo sapiens, dose 10-20 µM
[28] = system: HEK-293T; experiment: Induction of autophagy in human HEK293T cells assessed as increase in LC3-II protein level at 10 to 20 uM in presence of chloroquine measured after 3 hrs by western blot analysis; type: functional, cell-based; settings: dose 10-20 µM
[29] = system: SK-BR-3; experiment: Induction of apoptosis in human SK-BR-3 cells assessed as increase in cleaved caspase-3 level at 10 uM incubated for 24 hrs by western blot analysis; type: functional, cell-based
[30] = system: SK-BR-3; experiment: Induction of apoptosis in human SK-BR-3 cells assessed as live cells at 5 uM measured after 24 hrs by annexin V-FITC/PI staining based flow cytometry analysis (Rvb= 90.6%); type: functional
[31] = target: Receptor tyrosine-protein kinase erbB-2 (Homo sapiens) (UniProt P04626); experiment: Induction of endolysosomal trafficking of HER2 in human SK-BR-3 cells assessed as EGF-induced degradation of HER2 at 2 uM measured after 15 hrs post-EGF stimulation by western blot analysis relative to control; type: cell-based
[32] = system: SK-BR-3; experiment: Induction of apoptosis in human SK-BR-3 cells assessed as early apoptotic cells at 5 uM measured after 24 hrs by annexin V-FITC/PI staining based flow cytometry analysis (Rvb= 2.2%); type: functional
[33] = system: SK-BR-3; experiment: Induction of apoptosis in human SK-BR-3 cells assessed as increase in cleaved PARP level at 10 uM incubated for 24 hrs by western blot analysis; type: functional, cell-based

Compound: CC(=O)O[C@H]1C(=O)[C@@]2(C)[C@H]([C@H](OC(=O)c3ccccc3)[C@]3(O)C[C@H](OC(=O)[C@H](O)[C@@H](NC(=O)c4ccccc4)c4ccccc4)C(C)=C1C3(C)C)[C@]1(OC(C)=O)CO[C@@H]1C[C@@H]2O
- Activity [4]: Active
- Activity [5]: Active

Compound: COc1cccc2c1C(=O)c1c(O)c3c(c(O)c1C2=O)C[C@@](O)(C(=O)CO)C[C@@H]3O[C@H]1C[C@H](N)[C@H](O)[C@H](C)O1 [DOXORUBICIN]
- Activity [7]: 16.5%
- Activity [8]: 18.7%
- Activity [9]: 16.7%
- Activity [10]: inactive
- Activity [11]: 48.1%

Compound: CC[C@H](C)[C@@H]1NC(=O)[C@H](C(C)C)NC(=O)[C@H](CC(=O)O)NC(=O)[C@H](C(C)C)NC(=O)[C@H](CC(C)C)NC(=O)[C@H](NC(=O)[C@H](CC(N)=O)NC(=O)[C@H](Cc2ccccc2)NC(=O)[C@H](CC(C)C)NC(=O)[C@@H](NC(=O)[C@H](CCCNC(=N)N)NC(=O)[C@H](CCCNC(=N)N)NC(=O)[C@H](CCCNC(=N)N)NC(=O)[C@H](CCC(N)=O)NC(=O)[C@H](CCCNC(=N)N)NC(=O)[C@H](CCCNC(=N)N)NC(=O)[C@H](CCCCN)NC(=O)[C@H](CCCCN)NC(=O)[C@H](CCCNC(=N)N)NC(=O)CNC(=O)[C@H](Cc2ccc(O)cc2)NC(C)=O)C(C)C)CCCCCC/C=C/CCC[C@@H](C(=O)N[C@@H](CCCNC(=N)N)C(=O)N[C@@H](CCCCN)C(=O)N[C@H](C(N)=O)C(C)C)NC(=O)[C@H](CCCCN)NC1=O
- IC50 [1]: 7.12 µM
- Activity [12]: Active
- Activity [13]: 70%
- Activity [14]: 13.3%
- Activity [15]: 29.5%
- Activity [16]: Active
- Activity [17]: Active
- Activity [18]: inactive
- Activity [19]: 0.3%
- Activity [20]: 1.2%
- Activity [21]: 69%
- inhibition [22]: Dose-dependent effect
- Activity [23]: 60%
- Activity [24]: Active
- Activity [25]: inactive
- Activity [26]: 0.6%
- Activity [2]: Dose-dependent effect
- Activity [27]: inactive
- Activity [28]: Active
- Activity [29]: inactive
- Kd [6]: 0.33 µM
- Activity [30]: 81.1%
- Activity [31]: 50%
- Activity [3]: Non-Toxic
- Activity [32]: 2%
- Activity [33]: inactive

Second part, led by results:

- IC50 [1]: 13.6 µM
Compound: CC[C@H](C)[C@H](NC(=O)[C@@H](NC(=O)[C@H](CCCNC(=N)N)NC(=O)[C@H](CCCNC(=N)N)NC(=O)[C@H](CCCNC(=N)N)NC(=O)[C@H](CCCNC(=N)N)NC(=O)[C@H](CCC(N)=O)NC(=O)[C@H](CCCNC(=N)N)NC(=O)[C@H](CCCNC(=N)N)NC(=O)[C@H](CCCCN)NC(=O)[C@H](CCCCN)NC(=O)[C@H](CCCNC(=N)N)NC(=O)CNC(=O)[C@H](Cc1ccc(O)cc1)NC(C)=O)C(C)C)C(=O)N[C@@H](CCC(N)=O)C(=O)N[C@@H]1CCCCCC/C=C/CCC[C@@H](C(=O)N[C@@H](CCCNC(=N)N)C(=O)N[C@@H](CC(=O)O)C(=O)N[C@H](C(N)=O)C(C)C)NC(=O)[C@H](CCCCN)NC(=O)[C@H](CCC(=O)O)NC(=O)[C@H]([C@@H](C)CC)NC(=O)[C@H]([C@@H](C)CC)NC(=O)[C@H](C(C)C)NC(=O)[C@H](CC(C)C)NC1=O
- Activity [2]: Dose-dependent effect
- Activity [3]: Non-Toxic

- Activity [6]: inactive
Compound: CC[C@H](C)[C@H](NC(=O)[C@H](Cc1ccccc1)NC(=O)[C@H](CCCNC(=N)N)NC(=O)[C@H](CCCNC(=N)N)NC(=O)[C@H](CCCNC(=N)N)NC(=O)[C@H](CCCNC(=N)N)NC(=O)[C@H](CCC(N)=O)NC(=O)[C@H](CCCNC(=N)N)NC(=O)[C@H](CCCNC(=N)N)NC(=O)[C@H](CCCCN)NC(=O)[C@H](CCCCN)NC(=O)[C@H](CCCNC(=N)N)NC(=O)CNC(=O)[C@H](Cc1ccc(O)cc1)NC(C)=O)C(=O)N[C@@H](CCC(N)=O)C(=O)N[C@@H]1CCCCCC/C=C/CCC[C@@H](C(=O)N[C@@H](CCCNC(=N)N)C(=O)N[C@@H](CO)C(=O)N[C@H](C(N)=O)C(C)C)NC(=O)[C@H](CCCCN)NC(=O)[C@H]([C@@H](C)CC)NC(=O)[C@H](C(C)C)NC(=O)[C@H](C(C)C)NC(=O)[C@H](CCC(=O)O)NC(=O)[C@H](CC(C)C)NC1=O

- Activity [6]: inactive
Compound: CC[C@H](C)[C@H](NC(=O)[C@H](CC(C)C)NC(=O)[C@H](CCCNC(=N)N)NC(=O)[C@H](CCCNC(=N)N)NC(=O)[C@H](CCCNC(=N)N)NC(=O)[C@H](CCCNC(=N)N)NC(=O)[C@H](CCC(N)=O)NC(=O)[C@H](CCCNC(=N)N)NC(=O)[C@H](CCCNC(=N)N)NC(=O)[C@H](CCCCN)NC(=O)[C@H](CCCCN)NC(=O)[C@H](CCCNC(=N)N)NC(=O)CNC(=O)[C@H](Cc1ccc(O)cc1)NC(C)=O)C(=O)N[C@@H](CCC(N)=O)C(=O)N[C@@H]1CCCCCC/C=C/CCC[C@@H](C(=O)N[C@@H](CCCNC(=N)N)C(=O)N[C@@H](CCCCN)C(=O)N[C@@H](CCCNC(=N)N)C(N)=O)NC(=O)[C@H](CCCCN)NC(=O)[C@H](CCC(=O)O)NC(=O)[C@H](C(C)C)NC(=O)[C@H](CC(=O)O)NC(=O)[C@H](CCC(=O)O)NC(=O)[C@H](CCCNC(=N)N)NC1=O
